# Measurements as given in patent US10526314B2, “Hydroxyalkyl-substituted heteroaryltriazole derivatives and uses thereof” (BAYER AKTIENGESELLSCHAFT, priority 2016, dated 2020).
# pIC50: −log10 of the molar value.
# Assays:
# [1] = target: T1, human V1a receptor (Homo sapiens, UniProt P37288); assay: Cellular in vitro assay for determining vasopressin receptor activity (V1a, aequorin luminescence); type: cell-based; conditions: for pIC50: CHO cell line transfected with human V1a receptor, [Arg8]-vasopressin at EC50 concentration, read-out: IC50 hV1a; for ratio IC50 hV2/hV1a: selectivity ratio IC50 hV2 / IC50 hV1a
# T1 construct: expressed in transfected cells; host or cells: CHO K1 (ATCC), also stably transfected with a modified aequorin
# T1 sequence (P37288 whole entry): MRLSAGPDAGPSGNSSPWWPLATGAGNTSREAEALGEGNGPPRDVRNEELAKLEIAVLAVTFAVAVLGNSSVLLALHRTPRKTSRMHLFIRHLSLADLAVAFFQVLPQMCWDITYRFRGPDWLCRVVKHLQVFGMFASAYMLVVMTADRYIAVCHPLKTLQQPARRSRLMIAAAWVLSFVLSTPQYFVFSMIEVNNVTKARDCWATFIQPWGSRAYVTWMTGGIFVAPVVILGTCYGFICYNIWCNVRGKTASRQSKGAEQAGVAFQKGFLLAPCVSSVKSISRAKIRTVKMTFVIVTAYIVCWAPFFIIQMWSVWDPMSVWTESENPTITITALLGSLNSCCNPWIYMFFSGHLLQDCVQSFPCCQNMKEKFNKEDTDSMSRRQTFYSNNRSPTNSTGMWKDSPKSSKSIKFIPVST
# Procedure: (§1) B-1. Cellular In Vitro Assay for Determining Vasopressin Receptor Activity
# (§2) The identification of agonists and antagonists of the V1a and V2 vasopressin receptors from humans, rats and dogs as well as the quantification of the activity of the compounds of the invention is carried out using recombinant cell lines. These cell lines originally derive from a hamster's ovary epithelial cell (Chinese Hamster Ovary, CHO K1, ATCC: American Type Culture Collection, Manassas, Va. 20108, USA). The test cell lines constitutively express the human, rat or dog V1a or V2 receptors. In case of the Gαq-coupled V1a receptors, cells are also stably transfected with a modified form of the calcium-sensitive photoproteins aequorin (human and rat V1a) or obelin (dog V1a), which, after reconstitution with the cofactor coelenterazine, emit light when there are increases in free calcium concentrations [Rizzuto R, Simpson A W, Brini M, Pozzan T, Nature 358, 325-327 (1992); Illarionov B A, Bondar V S, Illarionova V A, Vysotski E S, Gene 153 (2), 273-274 (1995)]. The resulting vasopressin receptor cells react to stimulation of the recombinantly expressed V1a receptors by intracellular release of calcium ions, which can be quantified by the resulting photoprotein luminescence. The Gs-coupled V2 receptors are stably transfected into cell lines expressing the gene for firefly luciferase under control of a CRE-responsible promoter. Activation of V2 receptors induces the activation of the CRE-responsive promoter via cAMP increase, thereby inducing the expression of firefly luciferase. The light emitted by photoproteins of V1a cell lines as well as the light emitted by firefly luciferase of V2 cell lines corresponds to the activation or inhibition of the respective vasopressin receptor. The bioluminescence of the cell lines is detected using a suitable luminometer [Milligan G, Marshall F, Rees S, Trends in Pharmacological Sciences 17, 235-237 (1996)].
# Vasopressin V1a Receptor Cell Lines:
# On the day before the assay, the cells are plated out in culture medium (DMEM/F12, 2% FCS, 2 mM glutamine, 10 mM HEPES, 5 μg/ml coelenterazine) in 384-well microtiter plates and kept in a cell incubator (96% humidity, 5% v/v CO2, 37° C.). On the day of the assay, test compounds in various concentrations are placed for 10 minutes in the wells of the microtiter plate before the agonist [Arg^8]-vasopressin at EC50 concentration is added. The resulting light signal is measured immediately in a luminometer.
# (§3) Table 1A below lists individual IC50 values for the compounds of the invention (including racemic mixtures as well as separated enantiomers) that were obtained from cell lines transfected with the human V1a or V2 receptor: […]
# [2] = target: T2, human V2 receptor (Homo sapiens, UniProt P30518); assay: Cellular in vitro assay for determining vasopressin receptor activity (V2, CRE-luciferase); type: cell-based; conditions: CHO cell line transfected with human V2 receptor; [Arg8]-vasopressin at EC50 concentration; read-out: IC50 hV2
# T2 construct: expressed in transfected cells; host or cells: CHO K1 (ATCC) expressing firefly luciferase under a CRE-responsive promoter
# T2 sequence (P30518 whole entry): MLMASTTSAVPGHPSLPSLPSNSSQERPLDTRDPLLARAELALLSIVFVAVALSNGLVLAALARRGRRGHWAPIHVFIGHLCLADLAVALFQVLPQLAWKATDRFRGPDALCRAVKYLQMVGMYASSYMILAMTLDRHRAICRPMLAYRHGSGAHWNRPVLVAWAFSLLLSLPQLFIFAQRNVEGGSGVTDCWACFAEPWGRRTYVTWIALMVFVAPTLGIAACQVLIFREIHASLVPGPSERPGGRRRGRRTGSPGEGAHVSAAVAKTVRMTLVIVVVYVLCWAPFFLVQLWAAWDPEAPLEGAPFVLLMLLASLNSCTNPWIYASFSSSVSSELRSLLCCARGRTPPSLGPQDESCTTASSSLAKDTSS
# Procedure: as §1, §2
# Vasopressin V2 Receptor Cell Lines:
# On the day before the assay, the cells are plated out in culture medium (DMEM/F12, 2% FCS, 2 mM glutamine, 10 mM HEPES) in 384-well microtiter plates and kept in a cell incubator (96% humidity, 5% v/v CO2, 37° C.). On the day of the assay, test compounds in various concentrations and the agonist [Arg^8]-vasopressin at EC50 concentration are added together to the wells, and plates are incubated for 3 hours in a cell incubator. Upon addition of the cell lysis reagent Triton™ and the substrate luciferin, luminescence of firefly luciferase is measured in a luminometer.
# as §3
SMILES,pIC50 [1],ratio IC50 hV2/hV1a [1],pIC50 [2]
"C[C@H](O)c1nc(Cn2nc(-c3ccc(Cl)cc3)n(C[C@H](O)C(F)(F)F)c2=O)nn1-c1ccc(Cl)cn1 [Example 15, 5-(4-Chlorophenyl)-2-({1-(5-chloropyridin-2-yl)-5-[(1S)-1-hydroxyethyl]-1H-1,2,4-triazol-3-yl}methyl)-4-[(2S)-3,3,3-trifluoro-2-hydroxypropyl]-2,4-dihydro-3H-1,2,4-triazol-3-one]",8.08,1.4,7.93
"C[C@@H](O)c1nc(Cn2nc(-c3ccc(Cl)cc3)n(C[C@H](O)C(F)(F)F)c2=O)nn1-c1c(Cl)cncc1Cl [Example 4, 5-(4-Chlorophenyl)-2-({1-(3,5-dichloropyridin-4-yl)-5-[(1R)-1-hydroxyethyl]-1H-1,2,4-triazol-3-yl}methyl)-4-[(2S)-3,3,3-trifluoro-2-hydroxypropyl]-2,4-dihydro-3H-1,2,4-triazol-3-one]",8.89,6.7,8.06
"C[C@@H](O)c1nc(Cn2nc(-c3ccc(Cl)cc3)n(C[C@H](O)C(F)(F)F)c2=O)nn1-c1ccccn1 [Example 23, 5-(4-Chlorophenyl)-2-({5-[(1R)-1-hydroxyethyl]-1-(pyridin-2-yl)-1H-1,2,4-triazol-3-yl}methyl)-4-[(2S)-3,3,3-trifluoro-2-hydroxypropyl]-2,4-dihydro-3H-1,2,4-triazol-3-one]",7.06,1.2,6.99
"CC(O)c1nc(Cn2nc(-c3ccc(Cl)cc3)n(C[C@H](O)C(F)(F)F)c2=O)nn1-c1cncc(Cl)c1 (single isomer, unassigned) [Example 28]",7.69,2.5,7.29
"C[C@H](O)c1nc(Cn2nc(-c3ccc(Cl)cc3)n(C[C@H](O)C(F)(F)F)c2=O)nn1-c1ccccn1 [Example 14, 5-(4-Chlorophenyl)-2-({5-[(1S)-1-hydroxyethyl]-1-(pyridin-2-yl)-1H-1,2,4-triazol-3-yl}methyl)-4-[(2S)-3,3,3-trifluoro-2-hydroxypropyl]-2,4-dihydro-3H-1,2,4-triazol-3-one]",8.19,10.2,7.18
"C[C@@H](O)c1nc(Cn2nc(-c3ccc(Cl)cc3)n(C[C@H](O)C(F)(F)F)c2=O)nn1-c1ccncc1Cl [Example 6, 5-(4-Chlorophenyl)-2-({1-(3-chloropyridin-4-yl)-5-[(1R)-1-hydroxyethyl]-1H-1,2,4-triazol-3-yl}methyl)-4-[(2S)-3,3,3-trifluoro-2-hydroxypropyl]-2,4-dihydro-3H-1,2,4-triazol-3-one]",8.63,17.2,7.39
"C[C@H](O)c1nc(Cn2nc(-c3ccc(Cl)cc3)n(C[C@H](O)C(F)(F)F)c2=O)nn1-c1nccs1 [Example 10, 5-(4-Chlorophenyl)-2-({5-[(1S)-1-hydroxyethyl]-1-(1,3-thiazol-2-yl)-1H-1,2,4-triazol-3-yl}methyl)-4-[(2S)-3,3,3-trifluoro-2-hydroxypropyl]-2,4-dihydro-3H-1,2,4-triazol-3-one]",8.37,24.7,6.98
"C[C@H](O)c1nc(Cn2nc(-c3ccc(Cl)cc3)n(C[C@H](O)C(F)(F)F)c2=O)nn1-c1ccncc1 [Example 18, 5-(4-Chlorophenyl)-2-({5-[(1S)-1-hydroxyethyl]-1-(pyridin-4-yl)-1H-1,2,4-triazol-3-yl}methyl)-4-[(2S)-3,3,3-trifluoro-2-hydroxypropyl]-2,4-dihydro-3H-1,2,4-triazol-3-one]",7.54,7.0,6.70

# More lines, now with the values ahead:
pIC50 [1],ratio IC50 hV2/hV1a [1],pIC50 [2],SMILES
8.87,20.0,7.57,"C[C@@H](O)c1nc(Cn2nc(-c3ccc(Cl)cc3)n(C[C@H](O)C(F)(F)F)c2=O)nn1-c1ncccc1Cl [Example 5, 5-(4-Chlorophenyl)-2-({1-(3-chloropyridin-2-yl)-5-[(1R)-1-hydroxyethyl]-1H-1,2,4-triazol-3-yl}methyl)-4-[(2S)-3,3,3-trifluoro-2-hydroxypropyl]-2,4-dihydro-3H-1,2,4-triazol-3-one]"
7.04,2.6,6.62,"CC(O)c1nc(Cn2nc(-c3ccc(Cl)cc3)n(C[C@H](O)C(F)(F)F)c2=O)nn1-c1cccnc1 (single isomer, unassigned) [Example 25]"
7.17,2.0,6.86,"C[C@H](O)c1nc(Cn2nc(-c3ccc(Cl)cc3)n(C[C@H](O)C(F)(F)F)c2=O)nn1-c1nccn1C [Example 22, 5-(4-Chlorophenyl)-2-({5-[(1S)-1-hydroxyethyl]-1-(1-methyl-1H-imidazol-2-yl)-1H-1,2,4-triazol-3-yl}methyl)-4-[(2S)-3,3,3-trifluoro-2-hydroxypropyl]-2,4-dihydro-3H-1,2,4-triazol-3-one]"
9.28,10.7,8.25,"C[C@H](O)c1nc(Cn2nc(-c3ccc(Cl)cc3)n(C[C@H](O)C(F)(F)F)c2=O)nn1-c1cnccc1Cl [Example 2, 5-(4-Chlorophenyl)-2-({1-(4-chloropyridin-3yl)-5-[(1S)-1-hydroxyethyl]-1H-1,2,4-triazol-3-yl}methyl)-4-[(2S)-3,3,3-trifluoro-2-hydroxypropyl]-2,4-dihydro-3H-1,2,4-triazol-3-one]"
8.11,2.0,7.82,"CC(O)c1nc(Cn2nc(-c3ccc(Cl)cc3)n(C[C@H](O)C(F)(F)F)c2=O)nn1-c1cncc(Cl)c1 (single isomer, unassigned) [Example 29]"
8.38,5.9,7.61,"C[C@H](O)c1nc(Cn2nc(-c3ccc(Cl)cc3)n(C[C@H](O)C(F)(F)F)c2=O)nn1-c1c(Cl)cncc1Cl [Example 9, 5-(4-Chlorophenyl)-2-({1-(3,5-dichloropyridin-4-yl)-5-[(1S)-1-hydroxyethyl]-1H-1,2,4-triazol-3-yl}methyl)-4-[(2S)-3,3,3-trifluoro-2-hydroxypropyl]-2,4-dihydro-3H-1,2,4-triazol-3-one]"
8.48,14.9,7.31,"C[C@H](O)c1nc(Cn2nc(-c3ccc(Cl)cc3)n(C[C@H](O)C(F)(F)F)c2=O)nn1-c1ncccc1C(F)(F)F [Example 30, 5-(4-chlorophenyl)-2-({5-[(1S)-1-hydroxyethyl]-1-[3-(trifluoromethyl)pyridin-2-yl]-1H-1,2,4-triazol-3-yl}methyl)-4-[(2S)-3,3,3-trifluoro-2-hydroxypropyl]-2,4-dihydro-3H-1,2,4-triazol-3-one]"
7.91,1.5,7.73,"CC(O)c1nc(Cn2nc(-c3ccc(Cl)cc3)n(C[C@H](O)C(F)(F)F)c2=O)nn1-c1cncc(Cl)c1 (mixture of isomers) [Example 27, 5-(4-Chlorophenyl)-2-({1-(5-chloropyridin-3-yl)-5-(1hydroxyethyl)-1H-1,2,4triazol-3-yl}methyl)-4-[(2S)-3,3,3-trifluoro-2-hydroxypropyl]-2,4-dihydro-3H-1,2,4-triazol-3-one]"
8.24,11.3,7.19,"C[C@H](O)c1nc(Cn2nc(-c3ccc(Cl)cc3)n(C[C@H](O)C(F)(F)F)c2=O)nn1-c1ncccc1OC(F)(F)F [Example 12, 5-(4-Chlorophenyl)-2-({5-[(1S)-1-hydroxyethyl]-1-[3-(trifluoromethoxy)pyridin-2-yl]-1H-1,2,4-triazol-3-yl}methyl)-4-[(2S)-3,3,3-trifluoro-2-hydroxypropyl]-2,4-dihydro-3H-1,2,4-triazol-3-one]"
